# Entries after “also recorded” stand apart in the source; their conditions may differ.
# Assays:
# α1A-AR = molecular target: T1, α1A-AR (Homo sapiens, UniProt P35348); assay: Effect of compound on binding affinity of norepinephrine, epinephrine or other ligands at α1A-AR; parameters: expressed in transfected cells; host or cells: Rat-1 fibroblast cells
# T1 sequence (P35348 1-466): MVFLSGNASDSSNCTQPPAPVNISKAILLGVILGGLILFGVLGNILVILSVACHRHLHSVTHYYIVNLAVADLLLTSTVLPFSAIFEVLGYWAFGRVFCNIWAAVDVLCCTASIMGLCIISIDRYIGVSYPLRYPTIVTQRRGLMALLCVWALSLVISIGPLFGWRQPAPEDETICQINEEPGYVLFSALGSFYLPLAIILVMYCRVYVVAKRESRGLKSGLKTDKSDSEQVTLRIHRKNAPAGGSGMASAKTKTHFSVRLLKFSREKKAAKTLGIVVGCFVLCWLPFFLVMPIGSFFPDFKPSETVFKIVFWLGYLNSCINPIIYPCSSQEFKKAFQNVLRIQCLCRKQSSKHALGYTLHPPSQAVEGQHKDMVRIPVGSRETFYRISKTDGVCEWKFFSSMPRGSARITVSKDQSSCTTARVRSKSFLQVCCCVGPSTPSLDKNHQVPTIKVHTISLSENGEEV
# α1B-AR [1] = molecular target: T2, α1B-AR (Homo sapiens, UniProt P35368); assay: Competition binding with [125I]HEAT at α1B-AR
# T2 construct: expressed in transfected cells; host or cells: Rat-1 fibroblast cells
# T2 sequence (P35368 1-520): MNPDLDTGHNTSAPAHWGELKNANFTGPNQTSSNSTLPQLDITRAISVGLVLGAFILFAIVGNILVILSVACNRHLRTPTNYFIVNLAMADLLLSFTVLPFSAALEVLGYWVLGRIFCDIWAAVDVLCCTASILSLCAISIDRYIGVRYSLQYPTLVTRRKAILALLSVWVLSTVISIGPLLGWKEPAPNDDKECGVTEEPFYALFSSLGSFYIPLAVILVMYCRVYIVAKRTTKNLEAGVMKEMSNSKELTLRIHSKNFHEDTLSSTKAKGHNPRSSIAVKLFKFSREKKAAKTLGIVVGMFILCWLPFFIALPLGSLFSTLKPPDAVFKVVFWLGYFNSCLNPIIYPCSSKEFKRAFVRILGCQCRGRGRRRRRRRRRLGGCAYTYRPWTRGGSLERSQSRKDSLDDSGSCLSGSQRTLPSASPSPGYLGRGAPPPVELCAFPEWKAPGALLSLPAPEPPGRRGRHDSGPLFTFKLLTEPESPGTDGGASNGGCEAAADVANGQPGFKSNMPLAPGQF
# Procedure: (§1) Competition binding assays: These compounds were characterized for their ligand binding properties at the α1-AR subtypes. The binding affinities of Compounds 1-10 were determined in a series of competition-binding experiments with the α1-AR-selective antagonist [^125I]HEAT as the radioligand. Assays were performed in duplicate in HEM buffer, in a total assay volume of 1000 μl. Radioligand binding assays are composed of 5 ug of membranes, harvested from Rat-1 fibroblast cells expressing only one of the alpha1-AR subtypes, HEM buffer containing GTP (composed of 20 mM HEPES, pH 7.4, 1.4 mM EGTA, 12.5 mM MgCl2, pH to 7.4), 0.5 mM GTP, 35-80 pM^125I-HEAT, and various doses of norepinephrine or epinephrine and incubated with shaking at 25° C. for 1-2 hours. The above conditions will convert all the conformations of the receptor into a single low affinity site. To show both high and low affinity sites of the receptor (typically seen with GPCR agonists), the GTP is removed from the binding buffer. Nonspecific binding was determined experimentally in the presence of 10^−4 M phentolamine. Unbound radioactivity was separated from membrane-bound radioactivity by filtration through Whatman GF/C filter paper. […] Bound radioactivity remaining on the filters was counted on an ICN gamma counter operating at 79.8% efficiency. Data are analyzed using Graphpad Prism.
# α1B-AR [2] = molecular target: T2, α1B-AR; assay: Effect of compound on binding affinity of norepinephrine at α1B-AR; conditions: 10^−5M
# Procedure: as §1, with “Prism. […]” for “Prism.”
# [3] = Blood pressure in APP (London Mutation) AD mice and WT controls; format: in vivo, mouse; conditions: 40 mg/kg/bw daily
# α1B-AR [4] = molecular target: T2, α1B-AR; assay: cAMP assay at α1B-AR; format: cell-based
# Procedure: cAMP assay: Cells expressing a single α1-adrenergic receptor subtype are washed and re-plated into 24-well plates in DMEM media without serum at approximately 2.4×10^4 cells/well. Cells are allowed to rest till the next day in a CO2 incubator at 37° C. The cells are washed twice with DMEM (no serum), then 1 ml of DMEM is added to each well. Cells are pre-incubated for 45 mins-1 hour at 37° C. in a CO2 incubator with 10 uM propranolol, followed by 100 uM IBMX for 30 minutes. Final DMSO concentration is at 0.05%. Norepinephrine or epinephrine is added in a dose response (1 dose per well) in addition to one of the Compounds 1-10 at one concentration (i.e. 10^−5M). Cells are incubated for another 30 mins at 37° C. in a CO2 incubator. The reaction is concluded by aspirating the media and adding 0.1M HCL. The mixture is incubated for 20 mins at room temperature. The cells are scraped and suspended until homogenous. The mixture is centrifuged at 1000 g for 10 mins and the supernatant assayed the same day according to a manufacturer's cAMP kit (Cayman Select Cyclic AMP EIA kit #501040).
# [5] = tested on: 3×TG Alzheimer's Disease (AD) mouse model; assay: Tone-induced fear conditioning in 3×TG AD mice; format: in vivo
# Procedure: AD mice were first randomized and sorted into control or treatment groups. […] 14 AD mice from each treatment group received Compound 3 in the drinking water (2.611 mg/kg/bw) to deliver a daily dose near the peak potentiation of the cAMP response in the brain at 10^−8M based upon the PAM assay and pharmacokinetics. This was achieved by adding Compound 3 to the drinking water at 32 uM, assuming the mice drink 6 ml/day, with only 10% of bioavailable drug reaching the brain. The drug was administered in the drinking water for 10 months, starting at age 2 months, then subjected to either different cognitive behavioral tests or electrophysiology at age 12 months to maximize the manifestations of AD symptoms in these mice. Mice are maintained on the drug for the duration of the studies and blinded to the operator.
smiles,measurement,setting,value
"CC(C)Cc1c(OCC2=NCCN2)cccc1N(C)S(C)(=O)=O [Compound 3, N-[3-(4,5-Dihydro-1H-imidazol-2-ylmethoxy)-2-isobutyl-phenyl]-N-methyl-methanesulfonamide]",effect on binding of phentolamine at the α1A-AR,α1A-AR; 10^−5M,no effect; also recorded: does not change the affinity
same,effect on binding of cirazoline at the α1A-AR,α1A-AR; 10^−5M and 10^−7M,does not affect; also recorded: no effect
same,specific binding at the α1B-AR,α1B-AR [1],"little, if any, specific binding; also recorded: no affinity"
same,effect on affinity of norepinephrine at the α1B-AR,α1B-AR [2],no effect; also recorded: does not increase the affinity of norepinephrine
same,"blood pressure, treated vs placebo",[3],no changes in blood pressure
same,effect on norepinephrine cAMP response at the α1B-AR,α1B-AR [4],no effect
same,velocity after tone (freezing),[5]; female AD mice,slower movement speed
same,active time after tone (freezing),[5]; male AD mice,less active time

# Reference: patent publication US12384751B2, “Allosteric activators of the ALPHA1A-adrenergic receptor” (The Cleveland Clinic Foundation, priority 2019, dated 2025)
